Experiments:
HCV replicon cells = assay: HCV replicon FRET / luciferase assay; type: cell-based; details: Hepatitis C virus, 50% reduction in FRET or luciferase activity in HCV replicon cells; read-out: EC50
Protocol: FRET Assay Preparation. The HCV FRET screening assay was performed in 96-well cell culture plates. The FRET peptide (Anaspec, Inc.) (Taliani et al., Anal. Biochem. 1996, 240, 60-67) contains a fluorescence donor, EDANS, near one end of the peptide and an acceptor, DABCYL, near the other end. The fluorescence of the peptide is quenched by […] resonance energy transfer (RET) between the donor and the acceptor, but as the NS3 protease cleaves the peptide the products are released from RET quenching and the fluorescence of the donor becomes apparent. The assay reagent was made as follows: 5× cell Luciferase cell culture lysis reagent from Promega (#E153A) diluted to 1× with dH2O, NaCl added to 150 mM final, the FRET peptide diluted to 20 μM final from a 2 mM stock.
To prepare plates, HCV replicon cells, with or without a Renilla luciferase reporter gene, were trypsinized and plated in a 96-well plate with titrated test compounds added in columns 3 through 12; columns 1 and 2 contained a control compound (HCV control inhibitor), and the bottom row contained cells with DMSO only. The plates were then placed in a CO2 incubator at 37° C.
Assays. Subsequent to addition of the test compounds described above (FRET Assay Preparation), at various times the plate was removed and Alamar blue solution (Trek Diagnostics, #00-100) was added to measure cellular toxicity. After reading in a Cytoflour 4000 instrument (PE Biosystems), plates were rinsed with PBS and then used for FRET assay by the addition of 30 ul of the FRET peptide assay reagent described above (FRET Assay Preparation) per well. The plate was then placed into the Cytoflour 4000 instrument which had been set to 340 excite/490 emission, automatic mode for up to 20 cycles and the plate read in a kinetic mode. Typically, the signal to noise using an endpoint analysis after the reads was at least three-fold. Alternatively, after Alamar blue reading, plates were rinsed with PBS, then used for luciferase assay using the Promega Dual-Glo Luciferase Assay System or the Promega EnduRen Live Cell Substrate assay.
Compound analysis was performed by quantification of the relative HCV replicon inhibition and the relative cytotoxicity values. To calculate cytoxicity values, the average Alamar Blue fluorescence signals from the control wells were set as 100% non-toxic. The individual signals in each of the compound test wells were then divided by the average control signal and multiplied by 100% to determine […]. To calculate the HCV replicon inhibition values, an average background value was obtained from the two wells containing the highest amount of HCV control inhibitor at the end of the assay period. These numbers were similar to those obtained from naïve Huh-7 cells. The background numbers were then subtracted from the average signal obtained from the control wells and this number was used as 100% activity. The individual signals in each of the compound test wells were then divided by the averaged control values after background subtraction and multiplied by 100% to determine percent activity. EC50 values were calculated as the concentration which caused a 50% reduction in FRET or luciferase activity. The two numbers generated for the compound plate, percent cytoxicity and percent activity, were used to determine compounds of interest for further analysis.

HCV NS5B = target: T1, HCV NS5B (Hepatitis C virus genotype 1b, UniProt Q9WMX2); assay: HCV NS5B RdRp enzyme assay (standard / modified); type: biochemical; details: HCV RdRp genotype 1b; standard or modified assay not specified; read-out: IC50
T1 construct: The protein was expressed with an 18 amino acid C-terminal truncation to enhance the solubility; made in house; host or cells: E. coli BL21(DE3)
Protocol: HCV NS5B RdRp cloning, expression, and purification. The cDNA encoding the NS5B protein of HCV, genotype 1b, was cloned into the pET21a expression vector. The protein was expressed with an 18 amino acid C-terminal truncation to enhance the solubility. The E. coli competent cell line BL21(DE3) was used for expression of the protein. Cultures were grown at 37° C. for ˜4 hours until the cultures reached an optical density of 2.0 at 600 nm. The cultures were cooled to 20° C. and induced with 1 mM IPTG. Fresh ampicillin was added to a final concentration of 50 μg/ml and the cells were grown overnight at 20° C.
Cell pellets (3 L) were lysed for purification to yield 15-24 mgs of purified NS5B. The lysis buffer consisted of 20 mM Tris-HCl, pH 7.4, 500 mM NaCl, 0.5% triton X-100, 1 mM DTT, 1 mM EDTA, 20% glycerol, 0.5 mg/ml lysozyme, 10 mM MgCl2, 15 ug/ml deoxyribonuclease I, and Complete TM protease inhibitor tablets (Roche). After addition of the lysis buffer, frozen cell pellets were resuspended using a tissue homogenizer. To reduce the viscosity of the sample, aliquots of the lysate were sonicated on ice using a microtip attached to a Branson sonicator. The sonicated lysate was centrifuged at 100,000×g for 1 hr at 4° C. and filtered through a 0.2 μm filter unit (Corning).
The protein was purified using two sequential chromatography steps: Heparin sepharose CL-6B and polyU sepharose 4B (Pharmacia). The chromatography buffers were identical to the lysis buffer but contained no lysozyme, deoxyribonuclease I, MgCl2 or protease inhibitor and the NaCl concentration of the buffer was adjusted according to the requirements for charging the protein onto the column. Each column was eluted with a NaCl gradient which varied in length from 5-50 column volumes depending on the column type. After the final chromatography step, the resulting purity of the enzyme is >90% based on SDS-PAGE analysis. The enzyme was aliquoted and stored at −80° C.
Standard HCV NS5B RdRp enzyme assay. HCV RdRp genotype 1b assays were run in a final volume of 60 μl in 96 well plates (Corning 3600). The assay buffer is composed of 20 mM Hepes, pH 7.5, 2.5 mM KCl, 2.5 mM MgCl2, 1 mM DTT, 1.6 U RNAse inhibitor (Promega N2515), 0.01 mg/ml BSA (Sigma B6917), and 2% glycerol. All compounds were serially diluted (3-fold) in DMSO and diluted further in water such that the final concentration of DMSO in the assay was 2%. HCV RdRp genotype 1b enzyme was used at a final concentration of 28 nM. A polyA template was used at 6 nM, and a biotinylated oligo-dT12 primer was used at 180 nM final concentration. Template was obtained commercially (Amersham 27-4110). Biotinylated primer was prepared by Sigma Genosys. 3H-UTP was used at 0.6 μCi (0.29 μM total UTP). Reactions were initiated by the addition of enzyme, incubated at 30 ° C. for 60 min, and stopped by adding 25 μl of 50 mM EDTA containing SPA beads (4 μg/μl, Amersham RPNQ 0007). Plates were read on a Packard Top Count NXT after >1 hr incubation at room temperature.
Modified HCV NS5B RdRp enzyme assay. A modified enzyme assay was performed essentially as described for the standard enzyme assay except for the following: The biotinylated oligo dT12 primer was precaptured on streptavidin-coated SPA beads by mixing primer and beads in assay buffer and incubating at room temperature for one hour. Unbound primer was removed after centrifugation. The primer-bound beads were resuspended in 20 mM Hepes buffer, pH 7.5 and used in the assay at final concentrations of 20 nM primer and 0.67 μg/μl beads. Order of addition in the assay: enzyme (1.75 nM) was added to diluted compound followed by the addition of a mixture of template (0.36 nM), 3H-UTP (0.6 μCi, 0.29 μM), and primer-bound beads, to initiate the reaction; concentrations given are final. Reactions were allowed to proceed for 4 hours at 30° C.
IC50 values for compounds were determined using seven different [I]. […]

T1 sequence (Q9WMX2 2420-2992): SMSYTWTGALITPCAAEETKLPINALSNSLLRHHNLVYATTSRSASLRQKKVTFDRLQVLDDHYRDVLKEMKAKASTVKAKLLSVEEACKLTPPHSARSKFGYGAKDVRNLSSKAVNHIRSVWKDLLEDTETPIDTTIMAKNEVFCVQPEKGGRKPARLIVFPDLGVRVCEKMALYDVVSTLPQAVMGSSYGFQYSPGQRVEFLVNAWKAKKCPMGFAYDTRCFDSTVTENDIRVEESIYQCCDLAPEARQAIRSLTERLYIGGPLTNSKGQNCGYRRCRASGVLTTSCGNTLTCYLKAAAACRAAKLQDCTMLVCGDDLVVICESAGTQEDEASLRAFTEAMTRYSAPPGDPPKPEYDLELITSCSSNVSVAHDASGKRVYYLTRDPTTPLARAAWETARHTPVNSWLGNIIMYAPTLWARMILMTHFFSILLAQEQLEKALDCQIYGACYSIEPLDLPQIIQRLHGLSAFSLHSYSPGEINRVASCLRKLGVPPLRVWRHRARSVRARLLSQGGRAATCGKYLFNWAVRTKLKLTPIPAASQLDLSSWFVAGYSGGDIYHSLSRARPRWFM

| SMILES | EC50 (HCV replicon cells) [nM] | IC50 (HCV NS5B) [nM] |
| --- | --- | --- |
| COc1ccc2c(c1)C1CC1(C(=O)N1C[C@]3(C)CN(C)C[C@](C)(C1)C3O)Cn1c-2c(C2CCCCC2)c2ccc(C(=O)NS(=O)(=O)N(C)C)cc21 (stereo partly drawn) | 2.4 to 500 | 2.4 to 500 |
| COc1ccc2c(c1)C1CC1(C(=O)N1[C@@H]3C[C@H]1CN(Cc1ccccc1)C3)Cn1c-2c(C2CCCCC2)c2ccc(C(=O)NS(=O)(=O)N(C)C)cc21 (stereo partly drawn) | 2.4 to 500 | 2.4 to 500 |
| COc1ccc2c(c1)C1CC1(C(=O)N1[C@@H]3CNC[C@H]1C3)Cn1c-2c(C2CCCCC2)c2ccc(C(=O)NS(=O)(=O)N(C)C)cc21 (stereo partly drawn) | 2.4 to 500 | 2.4 to 500 |
| COc1ccc2c(c1)C1CC1(C(=O)N1C3CN(C)CC1CN(Cc1ccccc1)C3)Cn1c-2c(C2CCCCC2)c2ccc(C(=O)NS(=O)(=O)N(C)C)cc21 (stereo not drawn) | 2.4 to 500 | 2.4 to 500 |
| COc1ccc2c(c1)[C@@H]1C[C@]1(C(=O)N1C3CC1CN(C)C3)Cn1c-2c(C2CCCCC2)c2ccc(C(=O)NS(=O)(=O)C(C)C)cc21 | 2.4 to 500 | 2.4 to 500 |
| CCN1CC2CC(C1)N2C(=O)[C@]12C[C@H]1c1cc(OC)ccc1-c1c(C3CCCCC3)c3ccc(C(=O)NS(=O)(=O)N(C)C)cc3n1C2 | 2.4 to 500 | 2.4 to 500 |
| CCCS(=O)(=O)NC(=O)c1ccc2c(C3CCCCC3)c3n(c2c1)CC1(C(=O)N2C4CC2CN(C)C4)CC1c1cc(OC)ccc1-3 (stereo not drawn) | 2.4 to 500 | 2.4 to 500 |
| CCN1CC2CC(C1)N2C(=O)C12CC1c1cc(OC)ccc1-c1c(C3CCCCC3)c3ccc(C(=O)NS(=O)(=O)C(C)C)cc3n1C2 (stereo not drawn) | 2.4 to 500 | 2.4 to 500 |
| COc1ccc2c(c1)C1CC1(C(=O)N1C3CN(C)CC1CN(C(C)=O)C3)Cn1c-2c(C2CCCCC2)c2ccc(C(=O)NS(=O)(=O)N(C)C)cc21 (stereo not drawn) | 2.4 to 500 | 2.4 to 500 |
| COc1ccc2c(c1)C1CC1(C(=O)N1C3CN(C)CC1CN(C)C3)Cn1c-2c(C2CCCCC2)c2ccc(C(=O)NS(=O)(=O)N(C)C)cc21 (stereo not drawn) | 2.4 to 500 | 2.4 to 500 |
| COc1ccc2c(c1)C1CC1(C(=O)N1C3CN(C)CC1CN(C(C)C)C3)Cn1c-2c(C2CCCCC2)c2ccc(C(=O)NS(=O)(=O)N(C)C)cc21 (stereo not drawn) | 2.4 to 500 | 2.4 to 500 |
| CCC(C)S(=O)(=O)NC(=O)c1ccc2c(C3CCCCC3)c3n(c2c1)CC1(C(=O)N2C4COCC2COC4)CC1c1cc(OC)ccc1-3 (stereo not drawn) | 2.4 to 500 | 2.4 to 500 |
| COc1ccc2c(c1)C1CC1(C(=O)N1C3CC1CN(C)C3)Cn1c-2c(C2CCCCC2)c2ccc(C(=O)NS(=O)(=O)CC(C)C)cc21 (stereo not drawn) | 2.4 to 500 | 2.4 to 500 |
| COc1ccc2c(c1)C1CC1(C(=O)N1C3CC1CN(C)C3)Cn1c-2c(C2CCCCC2)c2ccc(C(=O)NS(=O)(=O)C3CCC3)cc21 (stereo not drawn) | 2.4 to 500 | 2.4 to 500 |
| COc1ccc2c(c1)C1CC1(C(=O)N1C3CC1CN(C)C3)Cn1c-2c(C2CCCCC2)c2ccc(C(=O)NS(=O)(=O)C3CCCC3)cc21 (stereo not drawn) | 2.4 to 500 | 2.4 to 500 |
| COc1ccc2c(c1)C1CC1(C(=O)N1C3CC1CN(C)C3)Cn1c-2c(C2CCCCC2)c2ccc(C(=O)NS(=O)(=O)CC(C)(C)C)cc21 (stereo not drawn) | 2.4 to 500 | 2.4 to 500 |
| COc1ccc2c(c1)C1CC1(C(=O)N1C3CC1CN(C)C3)Cn1c-2c(C2CCCCC2)c2ccc(C(=O)NS(=O)(=O)C(C)(C)C)cc21 (stereo not drawn) | 2.4 to 500 | 2.4 to 500 |
| CCC(C)S(=O)(=O)NC(=O)c1ccc2c(C3CCCCC3)c3n(c2c1)CC1(C(=O)N2C4CN(C)CC2CN(Cc2ccccc2)C4)CC1c1cc(OC)ccc1-3 (stereo not drawn) | 2.4 to 500 | 2.4 to 500 |
| CCC(C)S(=O)(=O)NC(=O)c1ccc2c(C3CCCCC3)c3n(c2c1)CC1(C(=O)N2C4CC2CN(Cc2ccccc2)C4)CC1c1cc(OC)ccc1-3 (stereo not drawn) | 2.4 to 500 | 2.4 to 500 |
| COc1ccc2c(c1)C1CC1(C(=O)N1C3CC1CN(Cc1ccccc1)C3)Cn1c-2c(C2CCCCC2)c2ccc(C(=O)NS(=O)(=O)CC(C)C)cc21 (stereo not drawn) | 2.4 to 500 | 2.4 to 500 |
| COc1ccc2c(c1)C1CC1(C(=O)N1C3CC1CN(Cc1ccccc1)C3)Cn1c-2c(C2CCCCC2)c2ccc(C(=O)NS(=O)(=O)C3CCCC3)cc21 (stereo not drawn) | 2.4 to 500 | 2.4 to 500 |
| COc1ccc2c(c1)C1CC1(C(=O)N1C3CC1CN(Cc1ccccc1)C3)Cn1c-2c(C2CCCCC2)c2ccc(C(=O)NS(=O)(=O)C3CCCCC3)cc21 (stereo not drawn) | 500 to 5000 | 2.4 to 500 |
| COc1ccc2c(c1)C1CC1(C(=O)N1C3CC1CN(Cc1ccccc1)C3)Cn1c-2c(C2CCCCC2)c2ccc(C(=O)NS(=O)(=O)CC(F)(F)F)cc21 (stereo not drawn) | 500 to 5000 | 2.4 to 500 |
| COc1ccc2c(c1)C1CC1(C(=O)N1C3CC1CN(Cc1ccccc1)C3)Cn1c-2c(C2CCCCC2)c2ccc(C(=O)NS(=O)(=O)CCC(F)(F)F)cc21 (stereo not drawn) | 500 to 5000 | 2.4 to 500 |
| COc1ccc2c(c1)C1CC1(C(=O)N1C3CC1CN(Cc1ccccc1)C3)Cn1c-2c(C2CCCCC2)c2ccc(C(=O)NS(=O)(=O)C3CCC3)cc21 (stereo not drawn) | 500 to 5000 | 2.4 to 500 |
| CCC(C)S(=O)(=O)NC(=O)c1ccc2c(C3CCCCC3)c3n(c2c1)CC1(C(=O)N2CC4CCC2CN4)CC1c1cc(OC)ccc1-3 (stereo not drawn) | 500 to 5000 | 2.4 to 500 |
| COc1ccc2c(c1)C1CC1(C(=O)N1CC3CCC1CN3)Cn1c-2c(C2CCCCC2)c2ccc(C(=O)NS(=O)(=O)CC(C)C)cc21 (stereo not drawn) | > 1000 | 2.4 to 500 |

Reference: patent publication US7547690B2, “Compounds for the treatment of Hepatitis C” (Bristol-Myers Squibb Company, priority 2007, dated 2009)
